From ChEMBL document CHEMBL6127116, “Discovery of Potent and Selective Blockers Targeting the Epilepsy-Associated KNa1.1 Channel” (J Med Chem, 2024)

Legend:
HEK293 = test: Cytotoxicity against HEK293 cells assessed as reduction in cell viability at 10 uM by CCK8 method relative to control; format: toxicity, cell-based; details: human, hek293, 10 µM
[1] = Clearance in male ICR mouse at 1 mg/kg, iv administered as single dose measured upto 24 hrs by HPLC analysis; format: ADME, organism-based; details: in vivo
[2] = Drug concentration in male ICR mouse plasma at 1 mg/kg, iv measured after 2 hrs by LC-MS/MS analysis; format: ADME, organism-based
[3] = Tmax in male ICR mouse at 10 mg/kg, po administered as single dose measured upto 24 hrs by HPLC analysis; format: ADME, organism-based; details: in vivo
[4] = Drug concentration in male ICR mouse brain at 1 mg/kg, iv measured after 0.5 hrs by LC-MS/MS analysis; format: ADME, organism-based; details: read-out: Ct
[5] = Tmax in male ICR mouse at 1 mg/kg, iv administered as single dose measured upto 24 hrs by HPLC analysis; format: ADME, organism-based; details: in vivo
[6] = Drug concentration in male ICR mouse brain at 10 mg/kg, po measured after 2 hrs by LC-MS/MS analysis; format: ADME, organism-based; details: read-out: Ct
[7] = MRT (0 to t) in male ICR mouse at 10 mg/kg, po administered as single dose measured upto 24 hrs by HPLC analysis; format: ADME, organism-based; details: in vivo
[8] = Cmax in male ICR mouse at 1 mg/kg, iv administered as single dose measured upto 24 hrs by HPLC analysis; format: ADME, organism-based; details: in vivo
[9] = Drug concentration in male ICR mouse plasma at 10 mg/kg, po measured after 2 hrs by LC-MS/MS analysis; format: ADME, organism-based
[10] = Drug concentration in male ICR mouse plasma at 10 mg/kg, po measured after 0.5 hrs by LC-MS/MS analysis; format: ADME, organism-based
[11] = Half life in male ICR mouse at 1 mg/kg, iv administered as single dose measured upto 24 hrs by HPLC analysis; format: ADME, organism-based; details: in vivo
[12] = Drug concentration in male ICR mouse brain at 10 mg/kg, po measured after 0.5 hrs by LC-MS/MS analysis; format: ADME, organism-based; details: read-out: Ct
[13] = Cmax in male ICR mouse at 10 mg/kg, po administered as single dose measured upto 24 hrs by HPLC analysis; format: ADME, organism-based; details: in vivo
[14] = AUC (0 to t) in male ICR mouse at 1 mg/kg, iv administered as single dose measured upto 24 hrs by HPLC analysis; format: ADME, organism-based; details: in vivo
[15] = molecular target: T1, Voltage-gated inwardly rectifying potassium channel KCNH2 (Homo sapiens, UniProt Q12809); test: Inhibition of human ERG expressed in Xenopus laevis oocytes by two-electrode voltage clamp method; format: toxicity, cell-based, Oocyte
[16] = AUC (0 to t) in male ICR mouse at 10 mg/kg, po administered as single dose measured upto 24 hrs by HPLC analysis; format: ADME, organism-based; details: in vivo
[17] = Half life in male ICR mouse at 10 mg/kg, po administered as single dose measured upto 24 hrs by HPLC analysis; format: ADME, organism-based; details: in vivo
[18] = Oral bioavailability in male ICR mouse at 10 mg/kg administered as single dose measured upto 24 hrs by HPLC analysis; format: ADME, organism-based; details: in vivo
[19] = Volume of distribution at steady state in male ICR mouse at 1 mg/kg, iv administered as single dose measured upto 24 hrs by HPLC analysis; format: ADME, organism-based; details: in vivo, read-out: Vdss
[20] = Drug concentration in male ICR mouse plasma at 1 mg/kg, iv measured after 0.5 hrs by LC-MS/MS analysis; format: ADME, organism-based
[21] = MRT (0 to t) in male ICR mouse at 1 mg/kg, iv administered as single dose measured upto 24 hrs by HPLC analysis; format: ADME, organism-based; details: in vivo
[22] = Drug concentration in male ICR mouse brain at 1 mg/kg, iv measured after 2 hrs by LC-MS/MS analysis; format: ADME, organism-based; details: read-out: Ct
[23] = molecular target: T1, Voltage-gated inwardly rectifying potassium channel KCNH2; test: Inhibition of human ERG expressed in Xenopus laevis oocytes at 10 uM by two-electrode voltage clamp method; format: toxicity, cell-based; details: oocyte
[24] = molecular target: Sodium channel protein type 5 subunit alpha (Homo sapiens, UniProt Q14524); test: Inhibition of Nav1.5 (unknown origin) expressed in HEK293T cells at 10 uM by patch-clamp electrophysiology method; format: cell-based
[25] = Inhibition of KNa 1.1 (unknown origin); parameters: species or system Homo sapiens
[26] = molecular target: T2, Potassium channel subfamily T member 1 (Homo sapiens, UniProt Q5JUK3); test: Inhibition of human SLACK expressed in HEK293 cells
T2 sequence (Q5JUK3 whole entry): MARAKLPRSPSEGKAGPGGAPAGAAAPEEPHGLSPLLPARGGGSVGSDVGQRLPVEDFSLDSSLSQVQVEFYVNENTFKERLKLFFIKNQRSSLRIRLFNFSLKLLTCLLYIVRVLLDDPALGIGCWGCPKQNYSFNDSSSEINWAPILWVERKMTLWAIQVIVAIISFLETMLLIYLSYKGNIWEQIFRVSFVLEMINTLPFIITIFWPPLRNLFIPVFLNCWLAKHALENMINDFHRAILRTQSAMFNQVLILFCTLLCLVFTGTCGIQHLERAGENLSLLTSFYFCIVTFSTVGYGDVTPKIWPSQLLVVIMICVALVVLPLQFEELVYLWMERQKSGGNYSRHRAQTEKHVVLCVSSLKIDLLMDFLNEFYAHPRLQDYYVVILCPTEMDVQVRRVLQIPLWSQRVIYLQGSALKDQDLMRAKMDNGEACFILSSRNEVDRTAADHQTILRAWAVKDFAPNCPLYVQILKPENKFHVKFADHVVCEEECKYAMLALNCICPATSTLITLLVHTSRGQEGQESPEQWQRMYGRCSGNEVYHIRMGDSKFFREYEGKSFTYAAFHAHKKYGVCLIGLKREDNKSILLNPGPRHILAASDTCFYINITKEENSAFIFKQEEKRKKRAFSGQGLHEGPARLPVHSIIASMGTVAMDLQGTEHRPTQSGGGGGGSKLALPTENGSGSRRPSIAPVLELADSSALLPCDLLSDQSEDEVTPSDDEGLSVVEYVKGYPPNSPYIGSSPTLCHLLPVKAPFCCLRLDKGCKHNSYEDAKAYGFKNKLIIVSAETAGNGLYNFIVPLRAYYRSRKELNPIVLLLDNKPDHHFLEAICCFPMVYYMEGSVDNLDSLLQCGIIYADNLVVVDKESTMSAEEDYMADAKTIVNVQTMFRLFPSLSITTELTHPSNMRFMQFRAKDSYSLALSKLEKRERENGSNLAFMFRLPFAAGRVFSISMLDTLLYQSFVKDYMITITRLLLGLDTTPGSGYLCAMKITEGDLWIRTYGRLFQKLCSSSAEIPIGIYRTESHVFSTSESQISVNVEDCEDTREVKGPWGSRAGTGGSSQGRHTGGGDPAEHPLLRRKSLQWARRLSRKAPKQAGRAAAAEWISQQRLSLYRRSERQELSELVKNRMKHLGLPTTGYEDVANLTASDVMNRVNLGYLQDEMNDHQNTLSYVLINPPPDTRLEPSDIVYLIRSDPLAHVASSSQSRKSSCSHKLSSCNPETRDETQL

[27] = molecular target: T2, Potassium channel subfamily T member 1; test: Inhibition of wild type human KNa1.1 expressed in HEK293T cells by patch-clamp electrophysiology method; format: cell-based

T1 sequence (Q12809 whole entry): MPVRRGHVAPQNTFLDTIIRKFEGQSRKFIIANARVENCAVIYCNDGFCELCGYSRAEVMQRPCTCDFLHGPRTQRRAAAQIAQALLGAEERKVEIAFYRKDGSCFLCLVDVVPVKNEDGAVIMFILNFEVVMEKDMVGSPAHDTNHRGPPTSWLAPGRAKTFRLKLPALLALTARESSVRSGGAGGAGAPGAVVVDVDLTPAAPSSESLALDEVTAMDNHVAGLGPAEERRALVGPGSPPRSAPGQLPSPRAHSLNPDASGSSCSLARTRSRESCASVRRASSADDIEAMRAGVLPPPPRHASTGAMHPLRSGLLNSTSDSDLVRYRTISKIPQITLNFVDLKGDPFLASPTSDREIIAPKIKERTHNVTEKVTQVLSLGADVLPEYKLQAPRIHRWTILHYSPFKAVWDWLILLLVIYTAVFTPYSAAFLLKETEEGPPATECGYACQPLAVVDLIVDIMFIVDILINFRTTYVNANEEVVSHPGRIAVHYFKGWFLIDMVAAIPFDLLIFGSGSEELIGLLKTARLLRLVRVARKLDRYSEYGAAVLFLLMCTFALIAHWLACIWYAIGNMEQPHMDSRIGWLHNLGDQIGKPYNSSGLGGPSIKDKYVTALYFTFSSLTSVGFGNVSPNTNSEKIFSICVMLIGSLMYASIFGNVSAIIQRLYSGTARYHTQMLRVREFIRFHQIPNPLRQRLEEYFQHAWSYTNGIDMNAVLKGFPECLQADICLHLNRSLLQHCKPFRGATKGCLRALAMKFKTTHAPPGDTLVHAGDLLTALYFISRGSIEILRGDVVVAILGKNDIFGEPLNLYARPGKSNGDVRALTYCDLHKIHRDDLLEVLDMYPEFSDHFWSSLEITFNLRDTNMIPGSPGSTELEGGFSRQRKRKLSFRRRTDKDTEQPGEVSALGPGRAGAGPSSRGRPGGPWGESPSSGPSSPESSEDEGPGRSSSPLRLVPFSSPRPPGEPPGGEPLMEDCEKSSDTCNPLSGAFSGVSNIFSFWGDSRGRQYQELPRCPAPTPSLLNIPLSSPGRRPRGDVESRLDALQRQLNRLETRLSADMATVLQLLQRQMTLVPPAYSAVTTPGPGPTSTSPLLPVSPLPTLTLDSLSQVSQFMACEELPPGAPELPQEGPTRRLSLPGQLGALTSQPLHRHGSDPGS
Sodium channel protein type 5 subunit alpha, sequence (Q14524 whole entry): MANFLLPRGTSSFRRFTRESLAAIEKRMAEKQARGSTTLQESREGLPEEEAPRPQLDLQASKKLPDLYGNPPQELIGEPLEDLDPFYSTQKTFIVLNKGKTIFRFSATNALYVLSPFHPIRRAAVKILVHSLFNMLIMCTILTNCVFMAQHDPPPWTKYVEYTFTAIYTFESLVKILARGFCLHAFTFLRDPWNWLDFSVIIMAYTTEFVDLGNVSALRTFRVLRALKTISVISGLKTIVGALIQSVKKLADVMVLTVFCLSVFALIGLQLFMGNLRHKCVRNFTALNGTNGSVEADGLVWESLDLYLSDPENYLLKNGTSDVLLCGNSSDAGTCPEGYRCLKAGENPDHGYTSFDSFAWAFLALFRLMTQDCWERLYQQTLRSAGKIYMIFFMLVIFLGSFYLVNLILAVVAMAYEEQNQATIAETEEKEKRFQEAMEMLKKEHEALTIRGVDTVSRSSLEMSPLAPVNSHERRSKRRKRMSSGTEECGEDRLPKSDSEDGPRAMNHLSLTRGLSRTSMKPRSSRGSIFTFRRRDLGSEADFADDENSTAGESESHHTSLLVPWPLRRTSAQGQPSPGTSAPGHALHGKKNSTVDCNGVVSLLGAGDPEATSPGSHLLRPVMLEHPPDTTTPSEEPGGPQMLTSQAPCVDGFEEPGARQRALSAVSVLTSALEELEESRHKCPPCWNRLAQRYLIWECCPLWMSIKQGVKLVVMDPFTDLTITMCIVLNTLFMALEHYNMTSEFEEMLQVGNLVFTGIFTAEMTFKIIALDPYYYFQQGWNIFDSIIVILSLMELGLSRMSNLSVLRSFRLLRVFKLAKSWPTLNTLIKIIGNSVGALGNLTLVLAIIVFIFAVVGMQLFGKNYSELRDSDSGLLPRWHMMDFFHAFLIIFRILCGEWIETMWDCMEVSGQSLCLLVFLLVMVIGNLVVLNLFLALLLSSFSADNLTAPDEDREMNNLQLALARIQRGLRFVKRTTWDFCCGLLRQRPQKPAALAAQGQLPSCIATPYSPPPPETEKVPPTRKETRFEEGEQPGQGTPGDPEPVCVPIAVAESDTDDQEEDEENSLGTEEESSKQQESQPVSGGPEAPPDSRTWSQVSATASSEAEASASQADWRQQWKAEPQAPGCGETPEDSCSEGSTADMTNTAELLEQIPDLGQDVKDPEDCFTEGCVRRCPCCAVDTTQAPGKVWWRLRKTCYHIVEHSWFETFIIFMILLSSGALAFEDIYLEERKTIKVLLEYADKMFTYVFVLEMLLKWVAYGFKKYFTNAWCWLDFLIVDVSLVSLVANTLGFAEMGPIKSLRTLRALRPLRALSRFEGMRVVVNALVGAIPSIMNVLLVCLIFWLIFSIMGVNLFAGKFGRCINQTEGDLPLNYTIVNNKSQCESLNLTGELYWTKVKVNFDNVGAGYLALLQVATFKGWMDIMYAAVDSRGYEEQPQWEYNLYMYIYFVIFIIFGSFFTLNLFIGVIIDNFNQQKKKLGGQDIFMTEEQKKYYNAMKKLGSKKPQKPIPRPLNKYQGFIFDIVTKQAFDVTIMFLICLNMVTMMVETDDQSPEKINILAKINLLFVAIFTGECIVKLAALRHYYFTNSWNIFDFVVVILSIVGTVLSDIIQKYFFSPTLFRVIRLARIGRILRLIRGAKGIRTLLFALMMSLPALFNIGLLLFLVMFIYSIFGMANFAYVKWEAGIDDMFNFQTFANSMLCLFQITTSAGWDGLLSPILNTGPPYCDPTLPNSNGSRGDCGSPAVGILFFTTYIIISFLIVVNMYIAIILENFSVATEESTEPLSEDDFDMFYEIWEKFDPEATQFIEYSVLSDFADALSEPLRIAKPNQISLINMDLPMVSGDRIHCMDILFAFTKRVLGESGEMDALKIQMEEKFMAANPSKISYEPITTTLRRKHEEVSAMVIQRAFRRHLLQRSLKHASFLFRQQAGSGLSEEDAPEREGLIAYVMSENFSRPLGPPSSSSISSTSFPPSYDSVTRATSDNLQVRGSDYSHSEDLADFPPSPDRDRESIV

In the case of `CN1CCC(NCc2c(OCc3ccc(F)cc3)ccc3ccccc23)CC1`, the Activity (HEK293) is reported as 53.17%.
`CN1CCC(NCc2c(OCc3ccc(Br)cc3)ccc3ccccc23)CC1` gave a clearance [1] of 249 mL/min/kg, a concentration at 2 h [2] of 4.16 ng/mL and a Tmax [3] of 0.17 h. The concentration at 0.5 h [4] was 960 ng/mL, the Tmax [5] was 4.8 min and the concentration at 2 h [6] was 158 ng/mL. The MRT last at 24 h [7] was 5.37 h, the Cmax [8] was 25.4 ng/mL and the concentration at 2 h [9] was 9.16 ng/mL. The concentration at 0.5 h [10] was 32.4 ng/mL, the half-life [11] was 3.57 h and the concentration at 0.5 h [12] was 102 ng/mL. For the same compound, the Cmax [13] was 43.8 ng/mL, the AUC(0-t) at 24 h [14] was 62 ng·h/mL and the IC50 [15] was 14.9 µM. For the same compound, the AUC(0-t) at 24 h [16] was 110 ng·h/mL, the half-life [17] was 7.23 h and the bioavailability [18] was 17.8%. For the same compound, the Vd [19] was 132 L/kg, the concentration at 0.5 h [20] was 12.8 ng/mL and the MRT last at 24 h [21] was 7.21 h. The concentration at 2 h [22] was 702 ng/mL.
In the case of `NCCNCCCc1c(OCc2ccc(Br)cc2)ccc2ccccc12`, the “inhibition (INH)” value [23] is reported as “Not Active” and the “inhibition (INH)” value [24] is reported as “Not Active”.
In the case of `CCOc1ccccc1S(=O)(=O)N1CC(c2nc(-c3ccsc3)no2)C1`, the IC50 [25] is reported as 2.1 µM.
`COc1ccc(Cl)cc1NC(=O)CN1CCN(S(=O)(=O)N2CCC(C)CC2)CC1` gave an IC50 [26] of 1.84 µM.
With `CC(C)COCC(CN(Cc1ccccc1)c1ccccc1)N1CCCC1` (centres undefined) [BEPRIDIL] the IC50 [25] was 6.36 µM and the IC50 [27] was 16.3 µM.
